Assay results: the NIST ThermoML archive (doi:10.1016/j.fluid.2014.09.011)
Numbers after ± are expanded uncertainties.

experiment: activity coefficient (dimensionless); of the first substance listed, at infinite dilution; xn = mol fraction of the nth substance listed; details: 298.15 K; 238 kPa; Liquid; Chromatography; x1 = 0

`CC(C)(C)Cl` [2-chloro-2-methylpropane] + CCCCCCO gave an activity coefficient of 2.4 ± 0.2.
With `CC(C)(C)Cl` [2-chloro-2-methylpropane] + ClCCCl the activity coefficient was 0.99 ± 0.1.
Work on `CC(C)(C)Cl` [2-chloro-2-methylpropane] + CO yielded an activity coefficient of 6.1 ± 0.3.
With `CC(C)(C)Cl` [2-chloro-2-methylpropane] + COCCO the activity coefficient was 2.9 ± 0.4.
`CC(C)(C)Cl` [2-chloro-2-methylpropane] + CCCCO showed an activity coefficient of 2.4 ± 0.4.
For `CC(C)(C)Cl` [2-chloro-2-methylpropane] + CCCCCO, the activity coefficient was 2.4 ± 0.4.
With `CC(C)(C)Cl` [2-chloro-2-methylpropane] + CCO the activity coefficient was 4.5 ± 0.6.
With `CC(C)(C)Cl` [2-chloro-2-methylpropane] + CCOC(C)=O the activity coefficient was 0.9 ± 0.2.
`CC(C)(C)Cl` [2-chloro-2-methylpropane] + CC(O)CO showed an activity coefficient of 17.3 ± 2.1.
Work on `CC(C)(C)Cl` [2-chloro-2-methylpropane] + CCCCCCCC yielded an activity coefficient of 1.3 ± 0.2.
With `CC(C)(C)Cl` [2-chloro-2-methylpropane] + CNC=O the activity coefficient was 6.3 ± 0.3.
Compound `CC(C)(C)Cl` [2-chloro-2-methylpropane] + c1ccccc1 has an activity coefficient of 0.89 ± 0.08.
`CC(C)(C)Cl` [2-chloro-2-methylpropane] + OCCOCCOCCO showed an activity coefficient of 6.8 ± 0.8.
Compound `CC(C)(C)Cl` [2-chloro-2-methylpropane] + OCCOCCO has an activity coefficient of 11.2 ± 2.
Compound `CC(C)(C)Cl` [2-chloro-2-methylpropane] + CC(O)CCO has an activity coefficient of 18.1 ± 3.1.
In the case of `CC(C)(C)Cl` [2-chloro-2-methylpropane] + C1CCCCC1, the activity coefficient is reported as 1.2 ± 0.2.
`CC(C)(C)Cl` [2-chloro-2-methylpropane] + CC(C)O showed an activity coefficient of 3 ± 0.6.
Compound `CC(C)(C)Cl` [2-chloro-2-methylpropane] + CCCO has an activity coefficient of 3.1 ± 0.4.
With `CC(C)(C)Cl` [2-chloro-2-methylpropane] + CCCCCCC the activity coefficient was 1.02 ± 0.08.
`CC(C)(C)Cl` [2-chloro-2-methylpropane] + OCCO gave an activity coefficient of 51.7 ± 10.
For `CC(C)(C)Cl` [2-chloro-2-methylpropane] + CC(O)C(C)O, the activity coefficient was 12.3 ± 2.
`CC(C)(C)Cl` [2-chloro-2-methylpropane] + CCC(O)CO showed an activity coefficient of 6.4 ± 0.5.
